Results: paper PMC12153356, “An antisense oligomer conjugate with unpredicted bactericidal activity against Fusobacterium nucleatum” (mBio, 2025)
Entries after “also recorded” stand apart in the source; their conditions may differ.

Legend:
[1] = system: F. nucleatum subsp. nucleatum ATCC 23726 (FNN23); assay: MIC determination and growth inhibition assay (broth microdilution, OD600 over time); type: cell-based, Fusobacterium nucleatum subsp. nucleatum ATCC 23726; details: for Growth inhibition of FNN23: 10 µM compound, 1 × 10^5 CFU/mL, growth inhibition = no visible growth (OD600 <0.01) after 120 h
Procedure: To test CPP-PNA conjugates for growth inhibition, we diluted mid-exponential phase cultures of FNN23 to 1 × 10^5 colony forming units (CFUs) per milliliter in Mueller-Hinton Broth (MHB) and incubated the diluted bacteria with 10 µM of either (KFF)3K- or (RXR)4XB- conjugated PNAs targeting acpP, ftsZ or gyrA. Growth was monitored over time by OD600 measurements, with growth inhibition defined as no visible growth (OD600 <0.01) after 120 h. […] Based on these findings, we conclude that CPP-PNAs targeting fusobacterial mRNAs are not effective in antisense inhibition.
(§1) The following fusobacterial strains were used in this study: Fusobacterium nucleatum subsp. nucleatum ATCC 23726 (FNN23) acquired from the American Type Culture Collection (ATCC), F. nucleatum subsp. nucleatum ATCC 25586 (FNN25), F. nucleatum subsp. vincentii ATCC 49256 (FNV), and F. nucleatum subsp. polymorphum ATCC 10953 (FNP) acquired from the German Collection of Microorganisms and Cell Culture (DSMZ), F. nucleatum subsp. animalis 7_1 (FNA) and F. periodonticum 2_1_31 (FPE) both received as a kind gift from E. Allen-Vercoe (University of Guelph, Canada). All strains were routinely grown at 37°C in 80:10:10 (N2:H2:CO2) anaerobic conditions on 2% agar supplemented BHI plates (BHI, 1% [wt:vol] dried yeast extract, 1% [vol:vol] 50% sterile-filtered glucose solution, 5 µg/mL of hemin; 1% [vol:vol] fetal bovine serum) from frozen 20% glycerol stocks kept at −80°C. For liquid growth, the strains were cultured in Columbia broth (ColB; BD Difco). Precultures were prepared 24 h before inoculating the working culture at a 1:50 dilution in fresh ColB until OD600 0.5 was reached. Cultures were then diluted in non-cation adjusted Mueller-Hinton Broth (MHB, BD Difco) to the desired CFU/mL number. P. gingivalis (DSM 20709) was purchased from DSMZ and grown at 37°C in anaerobic conditions as mentioned above on 2% agar supplemented BHI+ plates (BHI, 1% [wt:vol] dried yeast extract, 1% [vol:vol] 50% sterile filtered glucose solution, 5 µg/ml of hemin; 10% [vol:vol] fetal bovine serum; and 1 µg/mL vitamin K3) for 4 days. For liquid growth, P. gingivalis was cultured in BHI+ medium (BHI, BD Difco supplemented with 1% [vol:vol] 50% sterile-filtered glucose solution, 5 µg/mL of hemin; 1% [vol:vol] fetal bovine serum, and 1 µg/mL vitamin K3). Precultures were prepared 24 h before inoculating the working culture at a 1:20 dilution in BHI+ until OD600 of 0.5 was reached. All plates, media, buffers, and reagents were brought into the anaerobic chamber the day before usage to ensure full oxygen depletion.
To determine the MIC value, broth microdilutions were performed according to the standard protocol with some modifications ([119]). An overnight bacterial culture was diluted in a fresh ColB medium and grown to OD600 0.5 (mid-exponential phase). […] To determine the growth inhibition of P. gingivalis, an o.n. culture grown in BHI+ was diluted 1:1,500 in MHB to obtain 1 × 10^5 CFU/mL. E. coli K12, E. coli Nissle 1917, and S. enterica o.n. cultures grown in MHB were diluted 1:1,800 in fresh MHB to obtain 1 × 10^5 CFU/mL. In total, 190 µL of diluted bacterial cultures were pipetted into a transparent 96-well plate (Nunc, Thermo Fischer Scientific) together with 10 µL of respective 20× CPP or CPP-PNA stock or water as control. Bacterial growth was monitored by measuring OD600 every 20 min with constant shaking in a plate reader (Biotek) under the normal atmospheric environment or positioned in the anaerobic chamber with double orbital shaking every 20 min prior to each measurement with 237 cpm at 37°C for 120 h.

[2] = system: F. nucleatum subsp. nucleatum ATCC 23726 (FNN23); assay: Determination of bactericidal effect by CFU spot assay; type: cell-based, Fusobacterium nucleatum subsp. nucleatum ATCC 23726; details: 10 µM, 1 × 10^5 CFU/mL in MHB, spotting on BHI agar plates, up to 96 h; three replicates
Procedure: To investigate the bactericidal effects of PNAs an o.n. culture of FNN23 grown in ColB was diluted 1:50 in fresh ColB and grown to OD600 0.5. This culture was then diluted 1:2,500 to 1 × 10^5 CFU/mL in MHB, and 190 µL of the culture was dispensed into a transparent 96-well plate (Nunc, Thermo Fischer Scientific) together with 10 µL of respective 20× PNA stock or water and incubated at 37°C with 237 cpm shaking every 20 min. At the respective time points, 100 µL was taken out of the well, a 1:10 serial dilution series was prepared with 900 µL anoxic 1× PBS, and 5 µL of each dilution was spotted on BHI plates for CFU determination. Plates were incubated for 3 days at 37°C before taking out the plates of the anaerobic chamber for CFU counting.

[3] = system: F. nucleatum subsp. polymorphum ATCC 10953 (FNP); assay: Growth inhibition assay; type: cell-based, Fusobacterium nucleatum subsp. polymorphum ATCC 10953; details: 10 µM, MHB, 1 × 10^5 CFU/mL input, three replicates
Excerpt: as §1, with “For liquid growth, P. gingivalis was cultured in BHI+ medium (BHI, BD Difco supplemented with 1% [vol:vol] 50% sterile-filtered glucose solution, 5 µg/mL of hemin; 1% [vol:vol] fetal bovine serum, and 1 µg/mL vitamin K3). Precultures were prepared 24 h before inoculating the working culture at a 1:20 dilution in BHI+ until OD600 of 0.5 was reached. All plates, media, buffers, and reagents were brought into the anaerobic chamber the day before usage to ensure full oxygen depletion.” left out
To determine the MIC value, broth microdilutions were performed according to the standard protocol with some modifications ([119]). […] Bacterial growth was monitored by measuring OD600 every 20 min with constant shaking in a plate reader (Biotek) under the normal atmospheric environment or positioned in the anaerobic chamber with double orbital shaking every 20 min prior to each measurement with 237 cpm at 37°C for 120 h.

Substance	Growth inhibition of FNN23 ([1]; MHB)	Effect on FNN23 at higher inoculum ([1]; 10 µM, 10^7 CFU/mL in MHB (Fig. S3B))	Growth inhibition of FNN23 by further batches of FUS79 ([1]; batch reordered from original vendor and in-house synthesis, MHB, 1 x 10^5 CFU per ml (Fig. S2A and B))	MIC of FUS79 ([1]; dilution series, FNN23 in MHB at 1 × 10^5 CFU/mL input, anaerobic, 37°C, OD600 <0.01, three replicates (Fig. 3A)) [µM]	Effect on FNN23 in brain heart infusion (BHI) ([1]; peptide-rich medium BHI, 1 x 10^5 CFU per ml input (Fig. S3C))	Effect on FNN23 in Columbia broth (ColB) ([1]; peptide-rich medium ColB, 1 x 10^5 CFU per ml input (Fig. S3C))	Bactericidal effect (viable cells, CFU) on FNN23 [2]	Growth inhibition of FNP [3]
(RXR)4XB-GACATAATTGT [FUS79, non-targeting (RXR)4XB-PNA 11-mer control, (RXR)4XB-…]	completely inhibited growth; also recorded: inhibited the growth	no longer bactericidal	Both batches confirmed the FUS79-mediated growth inhibition	10	no effect	no effect	no visible CFUs detected on the agar plate after 96 h	inhibited the growth
RXRRXRRXRRXRXB [PNAscr]	no impact on growth						no bactericidal effect	growth retardation compared with the water control
